We go through ten molecules from patent US20090275594A1, “3-HYDRAZONE PIPERAZINYL RIFAMYCIN DERIVATIVES USEFUL AS ANTIMICROBIAL AGENTS” (priority 2008, published 2009).

Converted amounts (≈) assume the structure as drawn.

Common to all, as to assay type: cell-based
Holding throughout (conditions): cation adjusted Mueller-Hinton broth, 35° C., 16-20 hours

The test system of assay [1] is Enterococcus faecium OC 3312 vancomycin-resistant. Description: In vitro antibacterial activity, microdilution broth MIC (NCCLS M7-A4), strain A. Here is the method:
(§1) Minimum inhibitory concentration (MIC) is an indicator of in vitro antibacterial activity. […] The in vitro antimicrobial activity of representative compounds of the present invention was determined by the microdilution broth method following the test method from the National Committee for Clinical Laboratory Standards (NCCLS). This method is described in the NCCLS Document M7-A4, Vol. 17, No. 2, “Methods for Dilution Antimicrobial Susceptibility Test for Bacteria that Grow Aerobically—Fourth Edition”, which is incorporated herein by reference.
(§2) In this method two-fold serial dilutions of drug in cation adjusted Mueller-Hinton broth were added to wells in microdilution trays. The test organisms were prepared by adjusting the turbidity of actively growing broth cultures so that the final concentration of test organism after it is added to the wells was approximately 5×10^4 CFU/well. Following inoculation of the microdilution trays, the trays were incubated at 35° C. for 16-20 hours and then read. The amount of growth in the wells containing the test compound was compared with the amount of growth in the growth-control wells (no test compound) used in each tray.

In assay [2] the test system is Staphylococcus aureus ATCC 29213. Description: In vitro antibacterial activity, microdilution broth MIC (NCCLS M7-A4), strain B. Here is the method: as §1, §2
In assay [3] the test system is Methicillin-resistant Staphylococcus aureus OC 3726 COL. Description: In vitro antibacterial activity, microdilution broth MIC (NCCLS M7-A4), strain C. The protocol:
as §1, §2

Assay [4] has as its system Staphylococcus aureus OC4172. Description: In vitro antibacterial activity, microdilution broth MIC (NCCLS M7-A4), strain D. Here is the method:
as §1, §2

In the case of `COC1C=COC2(C)Oc3c(C)c(O)c4c(O)c(c(C=NN5CCN(Cc6cc(-c7ccccc7)no6)CC5)c(O)c4c3C2=O)NC(=O)C(C)=CC=CC(C)C(O)C(C)C(O)C(C)C(OC(C)=O)C1C` (stereo not shown) [Compound 1], the “MIC (μg/mL) A Strain” value in assay [1] is 0.25 µg/mL (≈ 0.259 µM). In assay [2], the “MIC (μg/mL) B Strain” value was found to be 0.12 µg/mL (≈ 0.124 µM). Further, in assay [3], the “MIC (μg/mL) C Strain” value came to 0.12 µg/mL (≈ 0.124 µM). Further, in assay [4], the “MIC (μg/mL) D Strain” value was 0.12 µg/mL (≈ 0.124 µM).
Take `COC1C=COC2(C)Oc3c(C)c(O)c4c(O)c(c(C=NN5CCN(Cc6cc(-c7ccc(Cl)cc7)no6)CC5)c(O)c4c3C2=O)NC(=O)C(C)=CC=CC(C)C(O)C(C)C(O)C(C)C(OC(C)=O)C1C` (stereo not shown) [Compound 2]: the “MIC (μg/mL) A Strain” value in assay [1] came out at 1 µg/mL (≈ 0.999 µM). Besides, in assay [2], the “MIC (μg/mL) B Strain” value came out at 0.5 µg/mL (≈ 0.5 µM). Moreover, the “MIC (μg/mL) C Strain” value in assay [3] is 0.5 µg/mL (≈ 0.5 µM). For the same molecule, in assay [4], the “MIC (μg/mL) D Strain” value amounted to 0.5 µg/mL (≈ 0.5 µM).
Take `COC1C=COC2(C)Oc3c(C)c(O)c4c(O)c(c(C=NN5CCN(Cc6cc(-c7cccc(Cl)c7)no6)CC5)c(O)c4c3C2=O)NC(=O)C(C)=CC=CC(C)C(O)C(C)C(O)C(C)C(OC(C)=O)C1C` (stereo not shown) [Compound 3]: the “MIC (μg/mL) A Strain” value in assay [1] turned out to be 0.5 µg/mL (≈ 0.5 µM). Further, the “MIC (μg/mL) B Strain” value in assay [2] worked out at 0.5 µg/mL (≈ 0.5 µM). The “MIC (μg/mL) C Strain” value in assay [3] was determined as 0.5 µg/mL (≈ 0.5 µM). For the same molecule, in assay [4], the “MIC (μg/mL) D Strain” value was 0.5 µg/mL (≈ 0.5 µM).
For the molecule `COC1C=COC2(C)Oc3c(C)c(O)c4c(O)c(c(C=NN5CCN(Cc6cc(-c7ccc(Cl)cc7Cl)no6)CC5)c(O)c4c3C2=O)NC(=O)C(C)=CC=CC(C)C(O)C(C)C(O)C(C)C(OC(C)=O)C1C` (stereo not shown) [Compound 4], the “MIC (μg/mL) A Strain” value in assay [1] was 1 µg/mL (≈ 0.966 µM). In addition, the “MIC (μg/mL) B Strain” value in assay [2] came out at 1 µg/mL (≈ 0.966 µM). In addition, in assay [3], the “MIC (μg/mL) C Strain” value came to 0.5 µg/mL (≈ 0.483 µM). Besides, the “MIC (μg/mL) D Strain” value in assay [4] amounted to 1 µg/mL (≈ 0.966 µM).
Take `COC1C=COC2(C)Oc3c(C)c(O)c4c(O)c(c(C=NN5CCN(Cc6cc(-c7ccc(F)cc7)no6)CC5)c(O)c4c3C2=O)NC(=O)C(C)=CC=CC(C)C(O)C(C)C(O)C(C)C(OC(C)=O)C1C` (stereo not shown) [Compound 5]: the “MIC (μg/mL) A Strain” value in assay [1] was found to be 0.25 µg/mL (≈ 0.254 µM). The “MIC (μg/mL) B Strain” value in assay [2] came out at 0.25 µg/mL (≈ 0.254 µM). For the same molecule, the “MIC (μg/mL) C Strain” value in assay [3] came out at 0.12 µg/mL (≈ 0.122 µM). Moreover, the “MIC (μg/mL) D Strain” value in assay [4] was found to be 0.12 µg/mL (≈ 0.122 µM).
Regarding `COC1C=COC2(C)Oc3c(C)c(O)c4c(O)c(c(C=NN5CCN(Cc6cc(-c7ccc(F)c(F)c7)no6)CC5)c(O)c4c3C2=O)NC(=O)C(C)=CC=CC(C)C(O)C(C)C(O)C(C)C(OC(C)=O)C1C` (stereo not shown) [Compound 6], the “MIC (μg/mL) A Strain” value in assay [1] is 0.5 µg/mL (≈ 0.499 µM). In assay [2], the “MIC (μg/mL) B Strain” value is 0.5 µg/mL (≈ 0.499 µM). Besides, the “MIC (μg/mL) C Strain” value in assay [3] was found to be 0.25 µg/mL (≈ 0.249 µM). For the same molecule, the “MIC (μg/mL) D Strain” value in assay [4] was determined as 0.25 µg/mL (≈ 0.249 µM).
As for `COC1C=COC2(C)Oc3c(C)c(O)c4c(O)c(c(C=NN5CCN(Cc6cc(-c7ccc(C(F)(F)F)cc7)no6)CC5)c(O)c4c3C2=O)NC(=O)C(C)=CC=CC(C)C(O)C(C)C(O)C(C)C(OC(C)=O)C1C` (stereo not shown) [Compound 7], in assay [1], the “MIC (μg/mL) A Strain” value is 1 µg/mL (≈ 0.967 µM). Moreover, the “MIC (μg/mL) B Strain” value in assay [2] was 0.5 µg/mL (≈ 0.484 µM). Also, in assay [3], the “MIC (μg/mL) C Strain” value came to 0.25 µg/mL (≈ 0.242 µM). Also, the “MIC (μg/mL) D Strain” value in assay [4] turned out to be 0.12 µg/mL (≈ 0.116 µM).
The like results for `COC1C=COC2(C)Oc3c(C)c(O)c4c(O)c(c(C=NN5CCN(Cc6cc(-c7ccc(C)cc7)no6)CC5)c(O)c4c3C2=O)NC(=O)C(C)=CC=CC(C)C(O)C(C)C(O)C(C)C(OC(C)=O)C1C` (stereo not shown) [Compound 8] were, in that order, 0.5 µg/mL (≈ 0.51 µM), 0.5 µg/mL (≈ 0.51 µM), 0.5 µg/mL (≈ 0.51 µM) and 0.5 µg/mL (≈ 0.51 µM).
The like results for `COc1ccc(-c2cc(CN3CCN(N=Cc4c5c(O)c6c(O)c(C)c7c(c6c4O)C(=O)C(C)(OC=CC(OC)C(C)C(OC(C)=O)C(C)C(O)C(C)C(O)C(C)C=CC=C(C)C(=O)N5)O7)CC3)on2)cc1` (stereo not shown) [Compound 9] were, in that order, 0.25 µg/mL (≈ 0.251 µM), 0.25 µg/mL (≈ 0.251 µM), 0.12 µg/mL (≈ 0.12 µM) and 0.12 µg/mL (≈ 0.12 µM).
As for `COC1C=COC2(C)Oc3c(C)c(O)c4c(O)c(c(C=NN5CCN(Cc6cc(C)no6)CC5)c(O)c4c3C2=O)NC(=O)C(C)=CC=CC(C)C(O)C(C)C(O)C(C)C(OC(C)=O)C1C` (stereo not shown) [Compound 10], in assay [1], the “MIC (μg/mL) A Strain” value turned out to be 0.06 µg/mL (≈ 0.0664 µM). In addition, in assay [2], the “MIC (μg/mL) B Strain” value is “≦0.03 μg/mL”. Moreover, the “MIC (μg/mL) C Strain” value in assay [3] was “≦0.03 μg/mL”. Further, in assay [4], the “MIC (μg/mL) D Strain” value was “≦0.03 μg/mL”.
